For one test, the target named is T1, BRD4 (BDI_K57-E168) (Homo sapiens, UniProt O60885).
T1 construct: BD1: amino acids K57-E168; made in house
Briefly: TR-FRET bromodomain binding assay, first bromodomain of BRD4. The following applies: His-tagged BD1, 100 nM Alexa647 probe; TR-FRET protocol A-E given per row. The method in brief:
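His-tagged BRD4 BD1 (K57-E168), 8 nM, with 1 nM Eu-anti-His antibody and 100 nM Alexa647-labelled BET-inhibitor probe in pH 6.0 phosphate buffer, 2% DMSO. TR-FRET read after 1 h at room temperature. IC50 from 4-parameter fit, converted to Ki using probe Kd and concentration.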

For test [1], the system named is breast cancer cell line MX-1. Briefly: MX-1 cell line proliferation assay. It is filed as cell-based. The following applies: MX-1 cells, 3-day proliferation assay, Cell Titer Glo, read-out: Cellular proliferation EC50. On the procedure: The impact of compounds of the Examples on cancer cell proliferation was determined using the breast cancer cell line MX-1 (ATCC) in a 3-day proliferation assay and the data are reported in Table 1. MX-1 cells were maintained in RPMI 1640 medium (Sigma) supplemented with 10% FBS at 37° C. and an atmosphere of 5% CO2. For compound testing, MX-1 cells were plated in 96-well black bottom plates at a density of 5000 cells/well in 90 μL of culture media and incubated at 37° overnight to allow cell adhesion and spreading. Compound dilution series were prepared in DMSO via a 3-fold serial dilution from 3 mM to 0.1 μM. The DMSO dilution series were then diluted 1:100 in phosphate buffered saline, and 10 μL of the resulted solution were added to the appropriate wells of the MX-1 cell plate. The final compound concentrations in the wells were 3, 1, 0.3, 0.1, 0.03, 0.01, 0.003, 0.001, 0.0003 and 0.0001 μM.
Luminescence readings from the Cell Titer Glo assay were normalized to the DMSO treated cells and analyzed using the GraphPad Prism software with sigmoidal curve fitting to obtain EC50s. The minimum significant ratio (MSR) was determined to evaluate assay reproducibility (Eastwood et al., (2006) J Biomol Screen, 11: 253-261).

For a further test, the target named is T2, BRD4 (BDII_E352-M457) (Homo sapiens, UniProt O60885).
T2 construct: proliferation; Protocol; made in house
Briefly: TR-FRET bromodomain binding assay, second bromodomain of BRD4. To be noted: His-tagged BD2, 30 nM Alexa647 probe; TR-FRET protocol A-E given per row. The procedure, abridged:
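His-tagged BRD4 BD2 ([…]) competed against an Alexa647-labelled BET-inhibitor probe in TR-FRET. Buffer was 20 mM sodium phosphate pH 6.0, 50 mM NaCl, 1 mM EDTA, 0.01% Triton X-100, 1 mM DTT, with method D DMSO series of 2.5 mM–800 nM (stock range). IC50 from 4-parameter fit, Ki from probe Kd and concentration.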

The results in this text go back to patent publication US9321764B2, “Dihydro-pyrrolopyridinone inhibitors” (AbbVie Inc., priority 2013, dated 2016).

The structures appear in SMILES notation. Like-named read-outs stand apart in the source and are kept apart here. Bounds are passed on as bounds.

In the case of `CCS(=O)(=O)Nc1ccc(Oc2ccc(Cl)cc2)c(-c2cn(C)c3c(=O)[nH]ccc23)c1` [Example 5, N-[4-(4-chlorophenoxy)-3-(1-methyl-7-oxo-6,7-dihydro-1H-pyrrolo[2,3-c]pyridin-3-yl)phenyl]ethanesulfonamide], the results for the Ki at BRD4 (BDI_K57-E168) and on BRD4 (BDII_E352-M457) were 10 nM and 29 nM, respectively. For the same compound, the EC50 in test [1] (Homo sapiens, MX1, 72 h) amounted to 67 nM.
Regarding `Cn1cc(-c2cc(CS(C)(=O)=O)ccc2NCC2CC2)c2cc[nH]c(=O)c21` [Example 110, 3-{2-[(cyclopropylmethyl)amino]-5-[(methylsulfonyl)methyl]phenyl}-1-methyl-1,6-dihydro-7H-pyrrolo[2,3-c]pyridin-7-one], the Ki on BRD4 (BDI_K57-E168) was 61 nM; at BRD4 (BDII_E352-M457), 215 nM. For the same compound, in test [1] (Homo sapiens, MX1, 72 h), the EC50 was 136 nM.
The like results for `Cc1oncc1S(=O)(=O)NCc1ccc(Oc2ccc(F)cc2F)c(-c2cn(C)c3c(=O)[nH]ccc23)c1` [Example 139, N-[4-(2,4-difluorophenoxy)-3-(1-methyl-7-oxo-6,7-dihydro-1H-pyrrolo[2,3-c]pyridin-3-yl)benzyl]-5-methyl-1,2-oxazole-4-sulfonamide] were, in that order, 129 nM, 525 nM and above 3000 nM.
With `Cn1cc(-c2cc(CS(C)(=O)=O)ccc2Nc2ccccn2)c2cc[nH]c(=O)c21` [Example 203, 1-methyl-3-{5-[(methylsulfonyl)methyl]-2-(pyridin-2-ylamino)phenyl}-1,6-dihydro-7H-pyrrolo[2,3-c]pyridin-7-one], the Ki on BRD4 (BDI_K57-E168) stood at 13.8 nM; at BRD4 (BDII_E352-M457), 43.9 nM. Further, in test [1] (Homo sapiens, MX1, 72 h), the EC50 was found to be 118 nM.
The like results for `Cn1cc(-c2cc(CS(=O)(=O)c3ccccc3)ccc2Oc2ccc(F)cc2F)c2cc[nH]c(=O)c21` [Example 58, 3-{2-(2,4-difluorophenoxy)-5-[(phenylsulfonyl)methyl]phenyl}-1-methyl-1,6-dihydro-7H-pyrrolo[2,3-c]pyridin-7-one] were, in that order, 72 nM, 88 nM and 57 nM.
In the same order, the values of `Cn1cc(-c2cc(S(C)(=O)=O)ccc2NCC2CCCC2)c2cc[nH]c(=O)c21` [Example 68, 3-{2-[(cyclopentylmethyl)amino]-5-(methylsulfonyl)phenyl}-1-methyl-1,6-dihydro-7H-pyrrolo[2,3-c]pyridin-7-one] are 103 nM, 124 nM and 38 nM.
In the same order, the values of `Cn1cc(-c2cc(NCc3cn4c(n3)CCC4)ccc2Oc2ccc(F)cc2F)c2cc[nH]c(=O)c21` [Example 176, 3-{2-(2,4-difluorophenoxy)-5-[(6,7-dihydro-5H-pyrrolo[1,2-a]imidazol-2-ylmethyl)amino]phenyl}-1-methyl-1,6-dihydro-7H-pyrrolo[2,3-c]pyridin-7-one] are 42.3 nM, 101 nM and 289 nM.
Regarding `Cn1cc(-c2cc(CNCCC3CCCC3)ccc2Oc2ccc(F)cc2F)c2cc[nH]c(=O)c21` [Example 128, 3-[5-{[(2-cyclopentylethyl)amino]methyl}-2-(2,4-difluorophenoxy)phenyl]-1-methyl-1,6-dihydro-7H-pyrrolo[2,3-c]pyridin-7-one], the Ki on BRD4 (BDI_K57-E168) was determined as 1490 nM; on BRD4 (BDII_E352-M457), 654 nM. The EC50 in test [1] (Homo sapiens, MX1, 72 h) is above 3000 nM.
Take `Cn1cc(-c2cc(NC(=O)c3cc(Cl)ccc3Cl)ccc2Oc2ccc(F)cc2F)c2cc[nH]c(=O)c21` [Example 148, 2,5-dichloro-N-[4-(2,4-difluorophenoxy)-3-(1-methyl-7-oxo-6,7-dihydro-1H-pyrrolo[2,3-c]pyridin-3-yl)phenyl]benzamide]: the Ki turned out to be 65.1 nM on BRD4 (BDI_K57-E168) and 150 nM at BRD4 (BDII_E352-M457). In addition, the EC50 in test [1] (Homo sapiens, MX1, 72 h) was 170 nM.
In the same order, the values of `Cn1cc(-c2cc(S(C)(=O)=O)ccc2OCC2CCOCC2)c2cc[nH]c(=O)c21` [Example 31, 1-methyl-3-[5-(methylsulfonyl)-2-(tetrahydro-2H-pyran-4-ylmethoxy)phenyl]-1,6-dihydro-7H-pyrrolo[2,3-c]pyridin-7-one] are 21 nM, 87 nM and 398 nM.
`CCS(=O)(=O)C(C)c1ccc(Oc2ccc(F)cc2F)c(-c2cn(C)c3c(=O)[nH]ccc23)c1` (single isomer, unassigned) [Example 57]: the values for the inhibitory constant (Ki) at BRD4 (BDI_K57-E168) and at BRD4 (BDII_E352-M457) were 14 nM and 37 nM, respectively. The EC50 in test [1] is 66 nM.
Regarding `CCS(=O)(=O)c1ccc(Oc2ccc(F)cc2F)c(-c2cn(C)c3c(=O)[nH]c(/C=C(\Cl)CCO)cc23)c1` [Example 126, 5-[(1Z)-2-chloro-4-hydroxybut-1-en-1-yl]-3-[2-(2,4-difluorophenoxy)-5-(ethylsulfonyl)phenyl]-1-methyl-1,6-dihydro-7H-pyrrolo[2,3-c]pyridin-7-one], the Ki was 8.3 nM at BRD4 (BDI_K57-E168) and 5.7 nM on BRD4 (BDII_E352-M457). Besides, the EC50 in test [1] (Homo sapiens, MX1, 72 h) was 81.9 nM.
The like results for `CCS(=O)(=O)c1ccc(Oc2ccc(F)cc2F)c(-c2cn(C)c3c(=O)[nH]ccc23)c1` [Example 49, 3-[2-(2,4-difluorophenoxy)-5-(ethylsulfonyl)phenyl]-1-methyl-1,6-dihydro-7H-pyrrolo[2,3-c]pyridin-7-one] were, in that order, 13 nM, 24 nM and 52 nM.
For the compound `Cc1noc(C)c1S(=O)(=O)NCc1ccc(Oc2ccc(F)cc2F)c(-c2cn(C)c3c(=O)[nH]ccc23)c1` [Example 140, N-[4-(2,4-difluorophenoxy)-3-(1-methyl-7-oxo-6,7-dihydro-1H-pyrrolo[2,3-c]pyridin-3-yl)benzyl]-3,5-dimethyl-1,2-oxazole-4-sulfonamide], the Ki at BRD4 (BDI_K57-E168) was determined as 490 nM; on BRD4 (BDII_E352-M457), 817 nM. Besides, the EC50 in test [1] (Homo sapiens, MX1, 72 h) was determined as 1820 nM.
As to `Cn1cc(-c2cc(S(C)(=O)=O)ccc2NCC2CC2)c2cc[nH]c(=O)c21` [Example 44, 3-{2-[(cyclopropylmethyl)amino]-5-(methylsulfonyl)phenyl}-1-methyl-1,6-dihydro-7H-pyrrolo[2,3-c]pyridin-7-one], the Ki on BRD4 (BDI_K57-E168) was 14 nM; on BRD4 (BDII_E352-M457) it was 89 nM. Also, the EC50 in test [1] (Homo sapiens, MX1, 72 h) worked out at 136 nM.
Take `CCS(=O)(=O)Nc1ccc(Oc2ccc(F)cc2F)c(-c2cn(C)c3c(=O)[nH]c(C(=O)NCCN4CCOCC4)cc23)c1` [Example 196, 3-{2-(2,4-difluorophenoxy)-5-[(ethylsulfonyl)amino]phenyl}-1-methyl-N-[2-(morpholin-4-yl)ethyl]-7-oxo-6,7-dihydro-1H-pyrrolo[2,3-c]pyridine-5-carboxamide]: the Ki on BRD4 (BDI_K57-E168) was 1.66 nM; at BRD4 (BDII_E352-M457), 9.64 nM. In addition, the EC50 in test [1] (Homo sapiens, MX1, 72 h) worked out at 30.9 nM.
For `CCS(=O)(=O)Nc1ccc(Oc2ccc(F)cc2F)c(-c2cn(C)c3c(=O)[nH]c(C4CCN(C(=O)C5CC5)CC4)cc23)c1` [Example 185, N-[3-{5-[1-(cyclopropylcarbonyl)piperidin-4-yl]-1-methyl-7-oxo-6,7-dihydro-1H-pyrrolo[2,3-c]pyridin-3-yl}-4-(2,4-difluorophenoxy)phenyl]ethanesulfonamide], the inhibitory constant (Ki) on BRD4 (BDI_K57-E168) worked out at 4.29 nM; on BRD4 (BDII_E352-M457), 7.94 nM. Besides, the EC50 in test [1] (Homo sapiens, MX1, 72 h) worked out at 61.4 nM.
As for `Cn1cc(-c2cc(CS(C)(=O)=O)cc(C3CC3)c2Nc2ccc(F)cc2F)c2cc[nH]c(=O)c21` [Example 202, 3-{3-cyclopropyl-2-[(2,4-difluorophenyl)amino]-5-[(methylsulfonyl)methyl]phenyl}-1-methyl-1,6-dihydro-7H-pyrrolo[2,3-c]pyridin-7-one], the values for the Ki at BRD4 (BDI_K57-E168) and on BRD4 (BDII_E352-M457) were 5.82 nM and 16.3 nM, respectively. Besides, the EC50 in test [1] (Homo sapiens, MX1, 72 h) stood at 98.3 nM.
The like results for `CCS(=O)(=O)Nc1ccc(Oc2ccc(F)cc2F)c(-c2cn(C)c3c(=O)[nH]c(C(=O)NCCN4CCN(C)CC4)cc23)c1` [Example 197, 3-{2-(2,4-difluorophenoxy)-5-[(ethylsulfonyl)amino]phenyl}-1-methyl-N-[2-(4-methylpiperazin-1-yl)ethyl]-7-oxo-6,7-dihydro-1H-pyrrolo[2,3-c]pyridine-5-carboxamide] were, in that order, 2.05 nM, 4.23 nM and 67.6 nM.
The like results for `Cn1cc(-c2cc(CCl)ccc2Oc2ccc(F)cc2F)c2cc[nH]c(=O)c21` [Example 120, 3-[5-(chloromethyl)-2-(2,4-difluorophenoxy)phenyl]-1-methyl-1,6-dihydro-7H-pyrrolo[2,3-c]pyridin-7-one] were, in that order, 77 nM, 208 nM and 306 nM.
